Where a name gives a salt, the structure may show the parent alone. Read-outs that look alike come from different tables or passages of the source.
How the values were obtained:
human BACE1 (1-460):Fc = human BACE1 (1-460):Fc (Homo sapiens (Human), UniProt P56817); test: BACE1 FRET Assay; type: biochemical; conditions: purified recombinant huBACE1:Fc, FRET substrate, pH 4.6; Mean ± SEM
Experimental: For in vitro enzymatic and cellular assays, test compounds are prepared in DMSO to make up a 10 mM stock solution. The stock solution is serially diluted in DMSO to obtain a ten-point dilution curve with final compound concentrations ranging from 10 μM to 0.05 nM in a 96-well round-bottom plate before conducting the in vitro enzymatic and whole cell assays.
Human BACE1 (accession number: AF190725) is cloned from total brain cDNA by RT-PCR. The nucleotide sequences corresponding to amino acid sequences #1 to 460 are inserted into the cDNA encoding human IgG1 (Fc) polypeptide (Vassar et al., Science, 286, 735-742 (1999)). This fusion protein of BACE1 (1-460) and human Fc, named huBACE1:Fc, is constructed into the pJB02 vector. Human BACE1 (1-460):Fc (huBACE1:Fc) is transiently expressed in HEK293 cells. 250 μg cDNA of each construct is mixed with Fugene 6 and added to 1 liter HEK293 cells. Four days after the transfection, conditioned media are harvested for purification. huBACE1:Fc is purified by Protein A chromatography. The enzyme is stored at −80° C. in small aliquots. (See Yang, et. al., J. Neurochemistry, 91(6) 1249-59 (2004)
Serial dilutions of test compounds are prepared as described above. Compounds are further diluted 20× in KH2PO4 buffer. Ten μL of each dilution is added to each well on row A to H of a corresponding low protein binding black plate containing the reaction mixture (25 μL of 50 mM KH2PO4, pH 4.6, 1 mM TRITON® X-100, 1 mg/mL Bovine Serum Albumin, and 15 μM of FRET substrate) (See Yang, et. al., J. Neurochemistry, 91(6) 1249-59 (2004)). The content is mixed well on a plate shaker for 10 minutes. Fifteen μL of two hundred pM human BACE1 (1-460):Fc (See Vasser, et al., Science, 286, 735-741 (1999)) in the KH2PO4 buffer is added to the plate containing substrate and test compounds to initiate the reaction. The RFU of the mixture at time 0 is recorded at excitation wavelength 355 nm and emission wavelength 460 nm, after brief mixing on a plate shaker. The reaction plate is covered with aluminum foil and kept in a dark humidified oven at room temperature for 16 to 24 h. The RFU at the end of incubation is recorded with the same excitation and emission settings used at time 0. The difference of the RFU at time 0 and the end of incubation is representative of the activity of BACE1 under the compound treatment. RFU differences are plotted versus inhibitor concentration and a curve is fitted with a four-parameter logistic equation to obtain the IC50 values. (May, et al., Journal of Neuroscience, 31, 16507-16516 (2011)).

[1] = tested on: Abeta 1-x peptide levels in brain of young female PDAPP mice; test: In vivo Inhibition of Beta-Secretase (brain Abeta 1-x in PDAPP mice); parameters: species or system mouse; conditions: three hours after dosing, compared to vehicle-treated mice
Excerpt: Several animal models, including mouse, guinea pig, dog, and monkey, may be used to screen for inhibition of beta-secretase activity in vivo following compound treatment Animals used in this invention can be wild type, transgenic, or gene knockout animals. […] One to twenty-four hours following the administration of compound, animals are sacrificed, and brains are removed for analysis of Abeta 1-x. “Abeta 1-x” as used herein refers to the sum of Abeta species that begin with residue 1 and end with a C-terminus greater than residue 28. This detects the majority of Abeta species and is often called “total Abeta”. Total Abeta peptides (Abeta 1-x) levels are measured by a sandwich ELISA, using monoclonal 266 as a capture antibody and biotinylated 3D6 as reporting antibody. (See May, et al., Journal of Neuroscience, 31, 16507-16516 (2011)).
For acute studies, compound or appropriate vehicle is administered and animals are sacrificed at about 3 hours after dosing. Brain tissue, is obtained from selected animals and analyzed for the presence of Abeta 1-x. After chronic dosing brain tissues of older APP transgenic animals may also be analyzed for the amount of beta-amyloid plaques following compound treatment.

[2] = tested on: Abeta released by primary cortical neurons from PDAPP transgenic embryonic mice; test: PDAPP Primary Neuronal Assay (Abeta 1-40 and 1-42 sandwich ELISAs); type: cell-based; conditions: Mus musculus, Primary cortical neuron, 24 h incubation
Experimental: For in vitro enzymatic and cellular assays, test compounds are prepared in DMSO to make up a 10 mM stock solution. […] A confirmatory whole cell assay is also run in primary neuronal cultures generated from PDAPP transgenic embryonic mice (May, et al., Journal of Neuroscience, 31, 16507-16516 (2011)). Primary cortical neurons are prepared from Embryonic Day 16 PDAPP embryos and cultured in 96 well plates (15×10^4 cells/well in DMEM/F12 (1:1) plus 10% FBS). After 2 days in vitro, culture media is replaced with serum free DMEM/F12 (1:1) containing B27 supplement and 2 μM (final) of Ara-C (Sigma, C1768). At day 5 in vitro, neurons are incubated at 37° C. for 24 h in the presence/absence of inhibitors (diluted in DMSO) at the desired concentration. […] Natl. Acad. Sci. USA 94, 1550-1555 (1997)). The concentration of Abeta released in the conditioned media following the compound treatment corresponds to the activity of BACE1 under such conditions.

[3] = Abeta 1-40, Mean ± SEM, read-out: PDAPP Neuron A-beta (1-40) ELISA IC50
[4] = Abeta 1-42, Mean ± SEM, read-out: PDAPP Neuron A-beta (1-42) ELISA IC50

Sequence of human BACE1 (1-460):Fc (P56817 22-460): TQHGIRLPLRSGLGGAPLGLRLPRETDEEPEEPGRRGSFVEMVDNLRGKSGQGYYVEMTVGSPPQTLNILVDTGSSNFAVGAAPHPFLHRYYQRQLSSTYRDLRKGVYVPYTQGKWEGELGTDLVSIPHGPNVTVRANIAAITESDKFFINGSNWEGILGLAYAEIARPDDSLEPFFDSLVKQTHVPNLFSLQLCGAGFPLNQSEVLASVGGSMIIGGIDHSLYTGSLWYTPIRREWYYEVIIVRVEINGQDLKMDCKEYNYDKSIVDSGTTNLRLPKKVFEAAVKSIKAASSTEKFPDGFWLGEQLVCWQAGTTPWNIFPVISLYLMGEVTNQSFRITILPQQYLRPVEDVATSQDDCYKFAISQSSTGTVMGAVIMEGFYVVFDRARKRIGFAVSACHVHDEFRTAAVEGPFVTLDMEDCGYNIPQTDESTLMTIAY

Row | IC50 (human BACE1 (1-460):Fc) [nM] | Structure (SMILES) | Abeta 1-x peptide levels reduced in brain hippocampus ([1]; 10 mg/kg oral dose) | IC50 [2, 3] [nM] | IC50 [2, 4] [nM] | Abeta 1-x peptide levels reduced in brain cortex ([1]; 10 mg/kg oral dose) | Abeta 1-x peptide levels reduced in brain cortex ([1]; 30 mg/kg oral dose) | Abeta 1-x peptide levels reduced in brain hippocampus ([1]; 30 mg/kg oral dose)
1 | 45 | Cl.N#Cc1ccc(C(=O)Nc2ccc(F)c([C@]34COC[C@@]3(F)COC(N)=N4)c2)nc1 [Example 34, N-[3-[(4aR,7aS)-2-Amino-4a-fluoro-5,7-dihydro-4H-furo[3,4-d][1,3]oxazin-7a-yl]-4-fluoro-phenyl]-5-cyano-pyridine-2-carboxamide hydrochloride] | approximately 26% | 49.9 | 36.5 | – | – | –
2 | 6.66 | Cl.N#Cc1ccc(C(=O)Nc2ccc(F)c([C@]34COC[C@@]3(F)CSC(N)=N4)c2)nc1 [Example 3, N-[3-[(4aR,7aS)-2-Amino-4a-fluoro-5,7-dihydro-4H-furo[3,4-d][1,3]thiazin-7a-yl]-4-fluoro-phenyl]-5-cyano-pyridine-2-carboxamide hydrochloride] | approximately 34% | 20.2 | 16.3 | approximately 46% | – | –
3 | 25.7 | NC1=N[C@@]2(c3cc(NC(=O)c4cnc(OCC5(F)CC5)cn4)ccc3F)COC[C@@]2(F)CO1 [Example 57, N-[3-[(4aR,7aS)-2-Amino-4a-fluoro-5,7-dihydro-4H-furo[3,4-d][1,3]oxazin-7a-yl]-4-fluoro-phenyl]-5-[(1-fluorocyclopropyl)methoxy]pyrazine-2-carboxamide hydrochloride] | – | 186 | 182 | – | – | –
4 | – | COc1cnc(C(=O)Nc2ccc(F)c([C@]34COC[C@@]3(F)CSC(N)=N4)c2)cn1.Cl [Example 2, N-[3-[(4aR,7aS)-2-Amino-4a-fluoro-5,7-dihydro-4H-furo[3,4-d][1,3]thiazin-7a-yl]-4-fluoro-phenyl]-5-methoxy-pyrazine-2-carboxamide hydrochloride] | approximately 40% | 29.5 | 21.9 | approximately 45% | approximately 54% | approximately 52%
5 | 15.6 | Cl.NC1=N[C@@]2(c3cc(NC(=O)c4ccc(F)cn4)ccc3F)COC[C@@]2(F)CS1 [Example 1, N-[3-[(4aR,7aS)-2-Amino-4a-fluoro-5,7-dihydro-4H-furo[3,4-d][1,3]thiazin-7a-yl]-4-fluoro-phenyl]-5-fluoro-pyridine-2-carboxamide hydrochloride] | – | 83.3 | 76.8 | – | approximately 48% | approximately 37%

Source: patent US9029367B2, “BACE inhibitors” (Eli Lilly and Company, priority 2013, dated 2015)
